Assay results from the CheMixHub drug solubility set.

Assay: xn = mol fraction of the nth substance listed, in the solute-free solvent

O=C(CC(=O)c1ccccc1)c1ccccc1 + CCO + O
solubility (g/100 g solution)
Conditions | 278.15 K | 283.15 K | 288.15 K | 293.15 K | 298.15 K | 303.15 K | 308.15 K | 313.15 K | 318.15 K
x2 = 0.2 | 0.0116 | 0.0406 | 0.0595 | 0.069 | 0.0786 | 0.0881 | 0.0946 | 0.177 | 0.129
x2 = 0.4 | 0.2 | 0.505 | 0.754 | 0.88 | 1.09 | 1.28 | 1.97 | 2.5 | 2.96
x2 = 0.6 | 0.577 | 0.706 | 0.904 | 1.13 | 1.47 | 2 | 2.12 | 2.61 | 3.89
x2 = 0.8 | 1.25 | 2.11 | 1.75 | 2.39 | 3.08 | 3.46 | 4.26 | 6.03 | 8.9

O=[N+]([O-])c1cc[nH]n1 + CCO + O
solubility (g/100 g solution)
Conditions | 283.15 K | 288.15 K | 293.15 K | 298.15 K | 303.15 K | 308.15 K | 313.15 K | 318.15 K | 323.15 K
x2 = 0.04165 | 0.265 | 0.347 | 0.44 | 0.528 | 0.709 | 0.854 | 1.16 | 1.49 | 1.89
x2 = 0.08908 | 0.319 | 0.385 | 0.478 | 0.581 | 0.718 | 0.87 | 1.15 | 1.44 | 1.83
x2 = 0.1436 | 0.409 | 0.521 | 0.689 | 0.942 | 1.16 | 1.49 | 1.89 | 2.41 | 3.08
x2 = 0.2068 | 0.482 | 0.6 | 0.75 | 0.956 | 1.18 | 1.48 | 1.87 | 2.34 | 2.97
x2 = 0.2812 | 0.53 | 0.639 | 0.777 | 0.962 | 1.16 | 1.46 | 1.8 | 2.24 | 2.82
x2 = 0.3698 | 1 | 1.2 | 1.45 | 1.71 | 2.08 | 2.5 | 3.05 | 3.86 | 4.83
x2 = 0.4772 | 1.69 | 1.98 | 2.32 | 2.72 | 3.26 | 3.87 | 4.68 | 5.83 | 7.1
x2 = 0.6101 | 2.68 | 3.06 | 3.52 | 4.09 | 4.83 | 5.64 | 6.66 | 8.11 | 9.68
x2 = 0.7788 | 3.98 | 4.51 | 5.09 | 5.8 | 6.58 | 7.79 | 9.11 | 10.7 | 12.4

O=c1ccc2ccccc2o1 + CCO + O
solubility (g/100 g solution)
Conditions | 278.15 K | 283.15 K | 288.15 K | 293.15 K | 298.15 K | 303.15 K | 308.15 K | 313.15 K | 318.15 K
x2 = 0.1429 | 0.201 | 0.363 | 0.646 | 1.12 | 1.9 | 3.1 | 4.94 | 7.56 | 12.1
x2 = 0.2857 | 0.809 | 1.49 | 2.82 | 4.84 | 8.59 | 14.1 | 23.6 | 36.2 | 52.4
x2 = 0.4286 | 2.35 | 4.02 | 6.77 | 10.7 | 17.5 | 25.7 | 37.2 | 51.5 | 65.7
x2 = 0.5714 | 3.44 | 5.45 | 9.19 | 13.8 | 21.1 | 30.1 | 41.7 | 56 | 70
x2 = 0.7143 | 3.65 | 5.85 | 9.47 | 14.4 | 21 | 30.5 | 40.9 | 54.9 | 68.7
x2 = 0.8571 | 3.18 | 5.14 | 8.31 | 12.7 | 19.3 | 28.4 | 38.2 | 51.8 | 66.4

Cc1nc(CCl)nc2ccccc12 + CCOC(C)=O + C1CCCCC1
solubility (g/100 g solution)
Conditions | x2 = 0.163 | x2 = 0.321 | x2 = 0.475 | x2 = 0.624 | x2 = 0.768 | x2 = 0.909
281.15 K | 0.0748 | 0.106 | 0.134 | 0.162 | 0.187 | 0.212
286.15 K | 0.102 | 0.139 | 0.176 | 0.21 | 0.244 | 0.276
291.15 K | 0.134 | 0.18 | 0.225 | 0.27 | 0.312 | 0.352
296.15 K | 0.172 | 0.229 | 0.285 | 0.339 | 0.392 | 0.439
301.15 K | 0.22 | 0.29 | 0.357 | 0.42 | 0.481 | 0.539
306.15 K | 0.276 | 0.357 | 0.437 | 0.511 | 0.582 | 0.65
311.15 K | 0.342 | 0.435 | 0.526 | 0.61 | 0.692 | 0.772
316.15 K | 0.418 | 0.523 | 0.623 | 0.718 | 0.81 | 0.898
321.15 K | 0.504 | 0.619 | 0.727 | 0.833 | 0.934 | 1.03
326.15 K | 0.599 | 0.721 | 0.84 | 0.951 | 1.06 | 1.16
331.15 K | 0.704 | 0.833 | 0.955 | 1.07 | 1.19 | 1.3
